One data set is described as follows: log P determination by HPLC on reversed-phase column (EEC directive 79/831 Annex V.A8). In kind it is physicochemical. The conditions noted are these: pH 2.3; HPLC reversed-phase C18, 43° C. The protocol: The given log P values were determined in accordance with EEC directive 79/831 Annex V.A8 by HPLC (High Performance Liquid Chromatography) on a reversed-phase column (C18). Temperature: 43° C. Mobile phases for the determination in the acidic range (pH 2.3): 0.1% aqueous phosphoric acid, acetonitrile; linear gradient from 10% acetonitrile to 90% acetonitrile. Calibration was carried out using unbranched alkan-2-ones (having 3 to 16 carbon atoms) with known log P values (determination of the log P values by the retention times using linear interpolation between two successive alkanones).
Broadly, the logP is the decadic logarithm of the partition coefficient of the neutral form, usually between octanol and water. Read a high logP as higher lipophilicity. Consider `C=C(C)CC(C)(O)c1ccccc1NC(=O)c1cn(C)nc1I` (stereo not shown) [Compound 13], for which the log partition coefficient (logP) is recorded as 2.54.

In the case of `CC(C)CCc1ccccc1NC(=O)c1cn(C)nc1I` [Compound 24], the logP was 3.15.

For the molecule `Cn1cc(C(=O)Nc2ccccc2-c2ccc(Br)c(Cl)c2)c(I)n1` [Compound 31], the log partition coefficient (logP) was found to be 3.45.

`CC(=O)N(C(=O)c1cn(C)nc1I)c1ccccc1C(C)CC(C)C` (stereo not shown) [Compound 21] registered a logP of 3.68.

On to `Cn1cc(C(=O)Nc2ccccc2-c2ccc(Cl)c(F)c2)c(I)n1` [Compound 3], for which the logP is 3.09.

Turning to `Cn1cc(C(=O)Nc2ccccc2-c2cccc(Cl)c2F)c(I)n1` [Compound 17], the logP was determined as 2.99.

Molecule `CC(C)CC(C)c1cc(F)ccc1NC(=O)c1cn(C)nc1I` (stereo not shown) [Compound 20] displayed a logP of 3.39.

`CC(C)=C(C)c1ccccc1NC(=O)c1cn(C)nc1I` [Compound 27] yielded a lipophilicity (logP) of 3.40.

Regarding `CON=C(c1ccc(-c2ccccc2NC(=O)c2cn(C)nc2I)cc1)C(F)(F)F` [Compound 23], the logP was 3.70.

With `Cn1cc(C(=O)Nc2ccccc2-c2ccc(Br)cc2)c(I)n1` [Compound 9], the lipophilicity (logP) turned out to be 3.20.

In turn, `CCCON=Cc1ccc(-c2ccccc2NC(=O)c2cn(C)nc2I)cc1F` [Compound 5] returned a log partition coefficient (logP) of 4.00.

`C=C(c1ccccc1NC(=O)c1cn(C)nc1I)C(C)C` [Compound 25] came in with a logP of 3.28.

Molecule `C=C(CC(C)(C)C)c1ccccc1NC(=O)c1cn(C)nc1I` [Compound 26] came in with a lipophilicity (logP) of 3.82.

On to `CC1CC(C)(C)c2cccc(NC(=O)c3cn(C)nc3I)c21` (stereo not shown) [Compound 19], for which the logP is 3.27.

Regarding `CC(CC1CC1)c1ccccc1NC(=O)c1cn(C)nc1I` (stereo not shown) [Compound 15], the log partition coefficient (logP) turned out to be 3.08.

`Cn1cc(C(=O)Nc2ccccc2-c2ccc(Cl)c(Cl)c2)c(I)n1` [Compound 2] displayed a logP of 3.38.

Molecule `Cc1ccc(-c2ccccc2NC(=O)c2cn(C)nc2I)cc1F` [Compound 7] registered a log partition coefficient (logP) of 3.18.

`CC(CC(C)(C)C)c1ccccc1NC(=O)c1cn(C)nc1I` (stereo not shown) [Compound 1]: the logP was determined as 3.64.

Molecule `Cn1cc(C(=O)Nc2ccccc2-c2ccc(F)c(Cl)c2)c(I)n1` [Compound 8] had a log partition coefficient (logP) of 3.09.

`Cn1cc(C(=O)Nc2ccccc2-c2ccc(I)cc2)c(I)n1` [Compound 16] returned a logP of 3.36.

Molecule `CC(C)CC(C)c1ccccc1NC(=O)c1cn(C)nc1I` (stereo not shown) [Compound 4] yielded a logP of 3.36.

On to `Cn1cc(C(=O)Nc2ccccc2-c2ccc(Cl)cc2)c(I)n1` [Compound 14], for which the logP came to 3.08.

In turn, `Cn1cc(C(=O)Nc2ccccc2C#CC(C)(C)C)c(I)n1` [Compound 22] showed a lipophilicity (logP) of 3.79.

`CC(=CC(C)C)c1ccccc1NC(=O)c1cn(C)nc1I` [Compound 12] yielded a log partition coefficient (logP) of 3.62.

Molecule `Cn1cc(C(=O)Nc2ccccc2-c2ccc(Br)cc2Cl)c(I)n1` [Compound 32] showed a logP of 3.56.

The molecule `Cn1cc(C(=O)Nc2ccccc2-c2ccc(C(F)(F)F)cc2Cl)c(I)n1` [Compound 30] gave a lipophilicity (logP) of 3.55.

Staying with this data set, now noted: reversed-phase C18 HPLC column; pH 2.3; HPLC reversed-phase C18, 43° C.
The term chromatographic logP denotes a lipophilicity value derived from retention on a column. On to `CCOC(=O)/C(C#N)=C\N(C)/N=C/c1ccccc1` [ethyl 3-(N′-benzylidene-N-methylhydrazino)-2-cyanoacrylate], for which the chromatographic logP is 2.31.

In the case of `CCOC(=O)c1cn(C)nc1N` [ethyl 3-amino-1-methyl-1H-pyrazole-4-carboxylate], the chromatographic logP turned out to be 0.72.

`Cn1cc(C(=O)Nc2ccc(F)cc2-c2ccc(Cl)c(Cl)c2)c(I)n1` [Compound 6, N-(3′,4′-dichloro-5-fluoro-1,1′-biphenyl-2-yl)-3-iodo-1-methyl-1H-pyrazole-4-carboxamide] yielded a chromatographic logP of 3.42.

As for `Cn1cc(C(=O)O)c(I)n1` [3-iodo-1-methyl-1H-pyrazole-4-carboxylic acid], the chromatographic logP came out at 0.57.

In the case of `CCOC(=O)c1cn(C)nc1I` [ethyl 3-iodo-1-methyl-1H-pyrazole-4-carboxylate], the chromatographic logP was found to be 1.74.

For the origin of these results see patent publication US7906656B2, “Iodopyrazolyl carboxanilides” (Bayer CropScience AG, priority 2003, dated 2011).
